# Measurements reported in PubChem BioAssay AID342 (DTP/NCI, 2004).
# Where “and” joins values, the source holds several entries; their conditions need not be identical. Equal entries are not always repeated.
# Tested on: Swiss mice, Sarcoma 180 sc, mean tumor weight T/C
# Assay: NCI In Vivo Anticancer Drug Screen. Data for tumor model Sarcoma 180 (subcutaneous) in Swiss mice
# Settings: endpoint: mean tumor weight, higher = larger tumour
# Method in brief: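 Tumor-bearing mice, transplantable tumor; readout survival or tumor size; result = T/C, treated vs vehicle control.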
# [1] = dose: 50.0 mg/kg/injection, schedule: Q01DX007 (ip), vehicle: carboxymethylcellulose (CMC)
# [2] = dose: 75.0 mg/kg/injection, schedule: Q01DX007 (ip), vehicle: carboxymethylcellulose (CMC)
smiles,measurement,setting,value
COc1ccc2c(c1)CC[C@@H]1[C@@H]2CC[C@]2(C)C[C@@](C)(O)C[C@@H]12,T/C,"dose: 0.25 mg/kg/injection, schedule: Q#A X014 (sc), vehicle: steriod suspending solution",100 % of control
same,T/C,"dose: 1.25 mg/kg/injection, schedule: Q#A X014 (sc), vehicle: steriod suspending solution",84 % of control
same,T/C,"dose: 2.5 mg/kg/injection, schedule: Q#A X014 (ip), vehicle: methylcellulose (MC)",94 % of control
same,T/C,"dose: 10.0 mg/kg/injection, schedule: Q#A X014 (ip), vehicle: methylcellulose (MC)",98 % of control
CC(CNC(=O)CCBr)NC(=O)CCBr (stereo not given),T/C,"dose: 110.0 mg/kg/injection, schedule: Q01DX007 (ip), vehicle: carboxymethylcellulose (CMC)",48 % of control and 64 % of control
same,T/C,"dose: 167.8 mg/kg/injection, schedule: Q01DX007 (ip), vehicle: carboxymethylcellulose (CMC)",48 % of control
same,T/C,"dose: 168.0 mg/kg/injection, schedule: Q01DX007 (ip), vehicle: carboxymethylcellulose (CMC)",34 % of control
CC(=O)OCC(=O)[C@@]1(O)CC[C@H]2[C@@H]3C[C@@H](C)C4=CC(=O)C=C[C@]4(C)[C@H]3[C@@H](O)C[C@@]21C,T/C,"dose: 32.0 mg/kg/injection, schedule: Q01DX007 (sc), vehicle: steriod suspending solution",51 % of control
same,T/C,"dose: 49.0 mg/kg/injection, schedule: Q01DX007 (sc), vehicle: steriod suspending solution",56 % of control
same,T/C,"dose: 73.0 mg/kg/injection, schedule: Q01DX007 (sc), vehicle: steriod suspending solution",40 % of control and 55 % of control
same,T/C,"dose: 109.0 mg/kg/injection, schedule: Q01DX007 (sc), vehicle: steriod suspending solution",48 % of control
same,T/C,"dose: 111.0 mg/kg/injection, schedule: Q01DX007 (sc), vehicle: steriod suspending solution",31 % of control
same,T/C,"dose: 165.0 mg/kg/injection, schedule: Q01DX007 (sc), vehicle: steriod suspending solution",36 % of control and 47 % of control
same,T/C,"dose: 248.0 mg/kg/injection, schedule: Q01DX007 (sc), vehicle: steriod suspending solution",35 % of control
same,T/C,"dose: 251.0 mg/kg/injection, schedule: Q01DX007 (sc), vehicle: steriod suspending solution",33 % of control
same,T/C,"dose: 375.0 mg/kg/injection, schedule: Q01DX007 (sc), vehicle: steriod suspending solution",31 % of control
C[C@@H]1C[C@@]2(C)[C@@H](CC[C@@H]3[C@@H]2CC[C@]2(C)[C@@H](O)CC[C@@H]32)CC1=O,T/C,"dose: 25.0 mg/kg/injection, schedule: Q#A X014 (oral), vehicle: steriod suspending solution",120 % of control
same,T/C,"dose: 75.0 mg/kg/injection, schedule: Q#A X014 (oral), vehicle: steriod suspending solution",75 % of control
same,T/C,"dose: 187.5 mg/kg/injection, schedule: Q#A X014 (oral), vehicle: steriod suspending solution",63 % of control
CCOC(=O)c1c(C#N)c(Cl)nc(C)c1[N+](=O)[O-],T/C,"dose: 3.0 mg/kg/injection, schedule: Q#A X014 (ip), vehicle: carboxymethylcellulose (CMC)",64 % of control
same,T/C,"dose: 6.0 mg/kg/injection, schedule: Q#A X014 (ip), vehicle: carboxymethylcellulose (CMC)",70 % of control
C[C@@H]1C[C@H]2[C@@H]3CCC4=CC(=O)C=C[C@]4(C)[C@@]3(F)[C@@H](O)C[C@]2(C)[C@@]1(O)C(=O)CO,T/C,"dose: 7.0 mg/kg/injection, schedule: Q01DX007 (sc), vehicle: steriod suspending solution",50 % of control and 56 % of control
same,T/C,"dose: 11.0 mg/kg/injection, schedule: Q01DX007 (sc), vehicle: steriod suspending solution",38 % of control and 39 % of control
same,T/C,"dose: 16.0 mg/kg/injection, schedule: Q01DX007 (sc), vehicle: steriod suspending solution",35 % of control and 36 % of control and 47 % of control
same,T/C,"dose: 24.0 mg/kg/injection, schedule: Q01DX007 (sc), vehicle: steriod suspending solution",30 % of control and 35 % of control and 40 % of control
Nc1ccn(C2OC(CO)C(O)C2O)c(=O)n1 (stereo not given),T/C,"dose: 8.0 mg/kg/injection, schedule: Q01DX007 (ip), vehicle: saline",47 % of control and 51 % of control
same,T/C,"dose: 12.0 mg/kg/injection, schedule: Q01DX007 (ip), vehicle: saline",61 % of control and 70 % of control
same,T/C,"dose: 27.0 mg/kg/injection, schedule: Q01DX007 (ip), vehicle: saline",51 % of control and 73 % of control
same,T/C,"dose: 40.0 mg/kg/injection, schedule: Q01DX007 (ip), vehicle: saline",37 % of control and 46 % of control
same,T/C,"dose: 60.0 mg/kg/injection, schedule: Q01DX007 (ip), vehicle: saline",13 % of control and 16 % of control
same,T/C,"dose: 90.0 mg/kg/injection, schedule: Q01DX007 (ip), vehicle: saline",10 % of control
N#[N+]c1n[nH]nc1C(N)=O,T/C,"dose: 12.5 mg/kg/injection, schedule: Q01DX007 (ip), vehicle: carboxymethylcellulose (CMC)",114 % of control
same,T/C,"dose: 25.0 mg/kg/injection, schedule: Q01DX007 (ip), vehicle: carboxymethylcellulose (CMC)",74 % of control
CCC(=O)O[C@H]1CC[C@H]2[C@@H]3CCC4=CC(=O)CC[C@]4(C)[C@H]3CC[C@]12C,T/C,"dose: 90.0 mg/kg/injection, schedule: Q01DX007 (sc), vehicle: steriod suspending solution",102 % of control
same,T/C,"dose: 125.0 mg/kg/injection, schedule: Q01DX007 (sc), vehicle: steriod suspending solution",82 % of control
same,T/C,"dose: 180.0 mg/kg/injection, schedule: Q01DX007 (sc), vehicle: steriod suspending solution",104 % of control
same,T/C,"dose: 250.0 mg/kg/injection, schedule: Q01DX007 (sc), vehicle: steriod suspending solution",102 % of control
same,T/C,"dose: 360.0 mg/kg/injection, schedule: Q01DX007 (sc), vehicle: steriod suspending solution",107 % of control
same,T/C,"dose: 500.0 mg/kg/injection, schedule: Q01DX007 (sc), vehicle: steriod suspending solution",60 % of control
same,T/C,"dose: 720.0 mg/kg/injection, schedule: Q01DX007 (sc), vehicle: steriod suspending solution",69 % of control
same,T/C,"dose: 1000.0 mg/kg/injection, schedule: Q01DX007 (sc), vehicle: steriod suspending solution",64 % of control
Nc1nc(=O)n(C2CC(O)C(CO)O2)cc1Br (stereo not given),T/C,"dose: 62.5 mg/kg/injection, schedule: Q#A X014 (ip), vehicle: carboxymethylcellulose (CMC)",58 % of control
same,T/C,"dose: 125.0 mg/kg/injection, schedule: Q#A X014 (ip), vehicle: carboxymethylcellulose (CMC)",57 % of control
same,T/C,"dose: 250.0 mg/kg/injection, schedule: Q#A X014 (ip), vehicle: carboxymethylcellulose (CMC)",50 % of control
CC(=O)OCC(=O)[C@@]1(O)CC[C@H]2[C@@H]3CCC4=CC(=O)C=C[C@]4(C)[C@H]3[C@@H](O)C[C@@]21C,T/C,"dose: 13.3 mg/kg/injection, schedule: Q01DX007 (sc), vehicle: steriod suspending solution",73 % of control
same,T/C,"dose: 20.0 mg/kg/injection, schedule: Q01DX007 (sc), vehicle: steriod suspending solution",62 % of control
same,T/C,"dose: 30.0 mg/kg/injection, schedule: Q01DX007 (sc), vehicle: steriod suspending solution",51 % of control
same,T/C,"dose: 45.0 mg/kg/injection, schedule: Q01DX007 (sc), vehicle: steriod suspending solution",23 % of control
CCCCCN(C)/N=N/c1nc[nH]c1C(N)=O,T/C,[1],41 % of control and 51 % of control
same,T/C,[2],23 % of control and 36 % of control
same,T/C,"dose: 100.0 mg/kg/injection, schedule: Q01DX007 (ip), vehicle: carboxymethylcellulose (CMC)",24 % of control
NN1CCCC1,T/C,"dose: 33.0 mg/kg/injection, schedule: Q01DX007 (ip), vehicle: carboxymethylcellulose (CMC)",86 % of control
same,T/C,"dose: 33.0 mg/kg/injection, schedule: Q01DX007 (ip), vehicle: saline",161 % of control
same,T/C,[1],71 % of control
same,T/C,"dose: 50.0 mg/kg/injection, schedule: Q01DX007 (ip), vehicle: saline",179 % of control
same,T/C,[2],20 % of control
same,T/C,"dose: 75.0 mg/kg/injection, schedule: Q01DX007 (ip), vehicle: saline",86 % of control
same,T/C,"dose: 113.0 mg/kg/injection, schedule: Q01DX007 (ip), vehicle: saline",70 % of control
same,T/C,"dose: 133.0 mg/kg/injection, schedule: Q01DX007 (ip), vehicle: saline",55 % of control
same,T/C,"dose: 200.0 mg/kg/injection, schedule: Q01DX007 (ip), vehicle: saline",36 % of control
